Measurements taken from patent publication US20100196462A1, “Method for Manufacturing a Pharmaceutical Form of Oseltamivir Phosphate” (priority 2006, published 2010).

Assay: Density of the oseltamivir phosphate active ingredient before densification (pharmacotechnical tests)
Format: physicochemical
Details: active ingredient as received, without densification

density: approximately 0.1 g/cm^3
Compound: CCOC(=O)C1=C[C@@H](OC(CC)CC)[C@H](NC(C)=O)[C@@H](N)C1 [oseltamivir phosphate]
